{
  "source": "patent US9850538B2",
  "about": "“Methods for diagnosing and treating diabetes” (The Board of Trustees of the University of Illinois, priority 2015, dated 2017)",
  "key": {"NOD mice [1]": {"system": "NOD mice", "assay": "Development of T1D in genetically susceptible NOD mice", "assay_type": "in vivo", "conditions": "NOD mice injected before clinical onset, starting between 18 and 24 weeks of age"}, "spleen cells [2]": {"system": "spleen cells", "assay": "Global gene expression profiling of spleen cells by microarray", "assay_type": "in vivo, mice", "experimental": "To understand the molecular mechanisms underlying protection against T1D bestowed by TSA treatment in NOD/Ltj mice, transcriptome (gene expression profiling) of spleen cells was analyzed by global gene expression profiling using a microarray approach. To this end, total RNA was isolated from diabetic and cured mice, converted into cRNA and then hybridized to AFFYMETRIX GENECHIP Mouse Genome 430 2.0 microarrays that contain 45,000 probe sets representing 34,000 mouse genes. Three-way analysis of gene expression in untreated-non-diabetic mice, overtly diabetic mice, and those cured by TSA treatment yielded 164 differentially regulated genes, filtered by an ANOVA p-value, 0.05. These highly regulated genes were used for hierarchical clustering. Microarray data sets were deposited at Gene Expression Omnibus (accession no. GSE 26461) (Jayaraman, et al. (2013) PLoS One 8:e55074).\nPrincipal component analysis validated the up-regulation of a set of pro-inflammatory genes in uninduced spleens of overtly diabetic mice, and their repression by TSA treatment. This analysis clearly distinguished the genes that may be responsible for T1D manifestation and therefore of significant impact on the diagnosis of T1D in humans (Jayaraman, et al. (2013) PLoS One 8:e55074)."}, "[3]": {"system": "inflammatory genes such as Cela3b, Cpb1, Pnlip and Cel", "assay": "Quantitative real time-PCR of selected top hit genes", "assay_type": "in vivo, mice", "text": "Expression levels of selected top hit genes were verified in spleens by quantitative real time-PCR using primer sets that were validated following MIQE guidelines and RNA derived from spleens of mice that were different from those used for microarray analysis. The expression of inflammatory genes such as Cela3b (elastase 3), Cpb1 (carboxyepetidase B1), Pnlip (pancreatic lipase) and Cel (carboxyl ester lipase) was prominent in the spleens of diabetic mice. […] However, Ctrl (chymotrypsin-like) gene substantially over-expressed in the exocrine pancreas was not repressed by TSA treatment, indicating the selectivity of gene regulation by chromatin remodeling in the pancreata. In addition, the mRNA levels of Pnliprp-1 (pancreatic lipase-related protein 1), Pnlilrp-2, Ctrl, Ctrc and Cpa1 were not altered by TSA treatment."}, "spleen cells [4]": {"system": "spleen cells", "assay": "Flow cytometry of innate immune cell frequency in spleen", "assay_type": "in vivo, mice", "experimental": "Insulin-producing beta cells can be destroyed by the inflammatory cells and the pro-inflammatory genes that were identified by microarray analysis and further validated by quantitative RT-PCR. Therefore, it was determined whether amelioration of T1D by TSA treatment involves alteration in the frequency of innate immune cells that are likely to express the Cela3b gene. Therefore, T1D susceptible NOD mice were injected with TSA before the clinical onset of diabetes, starting between 18 and 24 weeks of age, and spleen cells were stained with fluorochrome-labeled antibodies and analyzed by flow cytometry. The numbers of both macrophages of the CD11b+Ly6C+ phenotype and neutrophils expressing CD11b+Ly6G+ determinants, known to exert inflammatory responses and tissue damage, increased in the spleen of overtly diabetic mice when compared to prediabetic mice."}, "elastase": {"system": "elastase", "assay": "Flow cytometry of intracellular elastase in Ly6C+ and Ly6G+ spleen cells", "assay_type": "in vivo, mice", "experimental": "It was next investigated whether there was a correlation between the numbers of inflammatory cells expressing elastase and the health status. To this end, spleen cells from diabetic mice and those treated with TSA and cured of diabetes were surface labeled with FITC labeled anti-Ly6C antibody (to stain macrophages) and anti-Ly6G antibody (to stain neutrophils). After staining, cells were fixed, permeabilized and incubated with rabbit antibody against elastase, followed by treatment with TRITC-labeled goat anti-rabbit antibody. Cells were analyzed by flow cytometry for the cell surface expression of Ly6C or Ly6G and these cells were gated and analyzed for the intracellular expression of elastase. […] Similarly, the numbers of Ly6G+ neutrophils co-expressing elastase protein were also diminished in TSA treated and cured mice. Thus, TSA treatment abrogated spontaneously occurring T1D in NOD mice, which was negatively correlated with the frequency of both Ly6C+ macrophages and Ly6G+ neutrophils that co-express elastase."}, "islets": {"system": "islets", "assay": "Confocal imaging of inflammatory cell infiltration in pancreatic sections", "assay_type": "in vivo", "conditions": "drug-treated and cured mice", "experimental": "To visualize the effect of TSA treatment on the infiltration of inflammatory cells in the pancreas, paraffin-embedded pancreatic sections were treated with antibodies against insulin, Ly6C+ macrophages and Ly6G+ neutrophils. Sections were then imaged on a confocal microscope and the images analyzed. Both Ly6C+ macrophages and Ly6G+ neutrophils were evident in the islets of diabetic mice, as identified by co-staining with an anti-insulin antibody. In contrast, both Ly6C+ macrophages and Ly6G+ neutrophils were absent in the islets of drug-treated and cured mice. […] Treatment with TSA effectively eradicated the infiltration of inflammatory cells and thereby provides protection against T1D in the mouse model."}, "NOD mice [5]": {"system": "NOD mice", "conditions": "injection; cited from earlier work"}, "[6]": {"conditions": "drug administration in mice; cited from earlier work"}, "elastase gene": {"system": "elastase gene", "conditions": "cited from earlier work"}, "islets of Langerhans": {"system": "islets of Langerhans", "conditions": "TSA treatment; cited from earlier work"}},
  "note": "Read-outs that look alike come from different tables or passages of the source.",
  "data": [
    {"smiles": "CC(/C=C/C(=O)NO)=C\\[C@@H](C)C(=O)c1ccc(N(C)C)cc1", "note": "[TSA, Trichostatin A]", "values": [
      {"measurement": "diabetes", "setting": "NOD mice [1]", "result": "ameliorated diabetes"},
      {"measurement": "set of genes (n=17) over-expressed in spleens of acutely diabetic mice", "setting": "spleen cells [2]; microarray, spleens", "result": "repressed"},
      {"measurement": "expression of lipases Pnliprp1, Pnliprp2, Cel and Pnilp functionally related to Cela3b", "setting": "spleen cells [2]; regulated along with Cela3b", "result": "downregulated"},
      {"measurement": "Ctrl (chymotrypsin-like) gene expression", "setting": "[3]; over-expressed in the exocrine pancreas, pancreata", "result": "not repressed"},
      {"measurement": "mRNA level of Cpa1", "setting": "[3]; qRT-PCR", "result": "not altered"},
      {"measurement": "mRNA level of Ctrc", "setting": "[3]; qRT-PCR", "result": "not altered"},
      {"measurement": "mRNA level of Ctrl", "setting": "[3]; qRT-PCR", "result": "not altered"},
      {"measurement": "mRNA level of Pnlilrp-2", "setting": "[3]; qRT-PCR", "result": "not altered"},
      {"measurement": "mRNA level of Pnliprp-1 (pancreatic lipase-related protein 1)", "setting": "[3]; qRT-PCR", "result": "not altered"},
      {"measurement": "expression level of Cel (carboxyl ester lipase)", "setting": "[3]; qRT-PCR, spleens", "result": "reduced the expression levels of these genes substantially"},
      {"measurement": "expression level of Cela3b (elastase 3)", "setting": "[3]; qRT-PCR, spleens", "result": "reduced the expression levels of these genes substantially"},
      {"measurement": "expression level of Cpb1 (carboxyepetidase B1)", "setting": "[3]; qRT-PCR, spleens", "result": "reduced the expression levels of these genes substantially"},
      {"measurement": "expression level of Pnlip (pancreatic lipase)", "setting": "[3]; qRT-PCR, spleens", "result": "reduced the expression levels of these genes substantially"},
      {"measurement": "frequency of CD11b+F4/80+ macrophages", "setting": "spleen cells [4]; spleen, flow cytometry", "result": "did not affect the frequency"},
      {"measurement": "frequency of CD11b+Ly6C+ macrophages", "setting": "spleen cells [4]; spleen, flow cytometry", "result": "reduced the frequency"},
      {"measurement": "frequency of CD11b+Ly6G+ neutrophils", "setting": "spleen cells [4]; spleen, flow cytometry", "result": "reduced the frequency"},
      {"measurement": "numbers of dendritic cells expressing CD11c determinant", "setting": "spleen cells [4]; spleens, versus prediabetic and diabetic mice", "result": "Essentially, the same numbers"},
      {"measurement": "numbers of Ly6G+ neutrophils co-expressing elastase protein", "setting": "elastase; spleens of TSA treated and cured mice", "result": "diminished"},
      {"measurement": "numbers of Ly6C+ macrophages that contained elastase in the cytoplasm", "setting": "elastase; spleens of cured versus diabetic mice", "result": "significantly lower numbers"},
      {"measurement": "Ly6C+ macrophages in the islets", "setting": "islets", "result": "absent"},
      {"measurement": "Ly6G+ neutrophils in the islets", "setting": "islets", "result": "absent"},
      {"measurement": "development of T1D", "setting": "NOD mice [5]", "result": "prevents the development of T1D"},
      {"measurement": "side effects or gross pathological changes", "setting": "[6]", "result": "did not result in obvious side effects or gross pathological changes"},
      {"measurement": "expression of the elastase gene", "setting": "elastase gene; peripheral lymphoid organ spleen", "result": "significantly lowered"},
      {"measurement": "expression of the elastase gene", "setting": "elastase gene; target organ pancreas", "result": "significantly lowered"},
      {"measurement": "beta cells producing insulin", "setting": "islets of Langerhans", "result": "preservation of the beta cells"},
      {"measurement": "inflammation surrounding the islets of Langerhans", "setting": "islets of Langerhans", "result": "eradication of inflammation surrounding the islets of Langerhans"}
    ]}
  ]
}
